Source: US20130289070A1, “Use of Levocabastine for Modulating Generation of Pro-Inflammatory Cytokines” (Bausch & Lomb Incorporated, priority 2007, published 2013)

System: EoL-1 (human eosinophilic leukaemia cell line) cells
Experiment: TNF-α-induced cytokine release, EoL-1 cells differentiated with PMA (Luminex)
Type: cell-based
Set-up: key to IL-1α (PMA), p of decrement / IL-1β (PMA), p of decrement / IL-1ra (PMA), p of decrement / IL-5 (PMA), p of decrement / IL-7 (PMA), p of decrement / IL-8 (PMA), p of decrement / IP-10 (PMA), p of decrement / MCP-1 (PMA), p of decrement / MIP-1β (PMA), p of decrement / RANTES (PMA), p of decrement / VEGF (PMA), p of decrement / Fractalkine (PMA), p of decrement / MIP-1α (PMA), p of decrement: ns = non significant
Protocol: EoL-1 (human eosinophilic leukaemia cell line) cells (Saito et al., 1985; Mayumi, 1992) were maintained in RPMI-1640 medium with L-glutamine supplemented with 10% (v/v) FBS at 37° C. in a humidified atmosphere with 5% CO2. Where indicated, 24 h before the experiment 25 ng/mL PMA ((phorbol 12-myristate 13-acetate, purchased from Sigma Aldrich) was added to the medium to induce eosinophil granulation and differentiation (Ohtsu et al., 1993; Zimmermann et al., 2000).
Half-million cells were aliquoted per point in a 24 well plate; each experiment was performed in triplicate and carried out in parallel with eosinophils differentiated and non differentiated with PMA (25 ng/mL, 24 h). Cells were suspended in low serum medium (RPMI-1640, 0.1% (v/v) FBS). TNF-α was used to induce cytokine secretion as previously described by Steube et al. (2000), and the net release was obtained by comparison to the basal (non-TNF-α treated). In the first experiment we evaluated the concentration and time relation between TNF-α stimulation and cytokine release. Therefore, 5, 10, and 25 ng/mL of TNF-α was administered to the cells at 0, ½, 1, 2, 3, 6, 12 and 24 h (data not shown). An aliquot of 150 μL of supernate was collected for cytokines' analysis. […] Differentiated and non-differentiated EoL-1 cells were exposed from 0.1 to 2.3 mM levocabastine ([…]Levocabastine 0.05% solution eye drops containing cyclodextrins, without benzalkonium chloride), and aliquots of the supernates were collected after 12 and 24 h. The content of cytokines at time zero was estimated by treating the cells with 400 nM calcimycin (A-23187), which is a cytolytic agent that frees all the mediators from the cytoplasmic compartment. In addition, for each experiment we tested the effect of the vehicle, which was added to the wells in a concentration equal to the maximum amount used for drug dilution.
Samples (supernates 12 and 24 h) in triplicate were analyzed using Luminex 200™ (Luminex, Austin, Tex.) and Beadview software v1.0 (Upstate Cell Signaling Solutions, Temecula, Calif.).
All data are presented as mean±SEM for the indicated number of experiments. Statistical significance was determined by Newman-Keuls test after ANOVA using GraphPad Prism (version 3.0; GraphPad Software Inc., San Diego, Calif., USA). P-values<0.05 were considered to be significant.

[1] = 24 h, VCAM-1 + Levocabastine 2 mM vs VCAM-1

C[C@@H]1CN([C@H]2CC[C@](C#N)(c3ccc(F)cc3)CC2)CC[C@]1(C(=O)O)c1ccccc1 [Levocabastine, levocabastine]
IP-10 (PMA), p of decrement (24 h, TNF-α vs Lev 0.1 mM): ns
MCP-1 (PMA), p of decrement (24 h, TNF-α vs Lev 0.1 mM): ns
MIP-1α (PMA), p of decrement (24 h, TNF-α vs Lev 0.1 mM): ns
MIP-1β (PMA), p of decrement (24 h, TNF-α vs Lev 0.1 mM): ns
RANTES (PMA), p of decrement (24 h, TNF-α vs Lev 0.1 mM): ns
VEGF (PMA), p of decrement (24 h, TNF-α vs Lev 0.1 mM): ns
Fractalkine (PMA), p of decrement (24 h, TNF-α vs Lev 0.5 mM): ns
IL-1ra (PMA), p of decrement (24 h, TNF-α vs Lev 0.5 mM): ns
IL-1α (PMA), p of decrement (24 h, TNF-α vs Lev 0.5 mM): ns
IL-1β (PMA), p of decrement (24 h, TNF-α vs Lev 0.5 mM): ns
IL-5 (PMA), p of decrement (24 h, TNF-α vs Lev 0.5 mM): ns
IL-7 (PMA), p of decrement (24 h, TNF-α vs Lev 0.5 mM): ns
IL-8 (PMA), p of decrement (24 h, TNF-α vs Lev 0.5 mM): ns
IP-10 (PMA), p of decrement (24 h, TNF-α vs Lev 0.5 mM): ns
MCP-1 (PMA), p of decrement (24 h, TNF-α vs Lev 0.5 mM): ns
MIP-1α (PMA), p of decrement (24 h, TNF-α vs Lev 0.5 mM): ns
MIP-1β (PMA), p of decrement (24 h, TNF-α vs Lev 0.5 mM): ns
RANTES (PMA), p of decrement (24 h, TNF-α vs Lev 0.5 mM): ns
VEGF (PMA), p of decrement (24 h, TNF-α vs Lev 0.5 mM): ns
Fractalkine (PMA), p of decrement (24 h, TNF-α vs Lev 1.0 mM): ns
IL-1ra (PMA), p of decrement (24 h, TNF-α vs Lev 1.0 mM): ns
IL-1α (PMA), p of decrement (24 h, TNF-α vs Lev 1.0 mM): ns
IL-1β (PMA), p of decrement (24 h, TNF-α vs Lev 1.0 mM): p < 0.05
IL-5 (PMA), p of decrement (24 h, TNF-α vs Lev 1.0 mM): ns
IL-7 (PMA), p of decrement (24 h, TNF-α vs Lev 1.0 mM): ns
IL-8 (PMA), p of decrement (24 h, TNF-α vs Lev 1.0 mM): ns
IP-10 (PMA), p of decrement (24 h, TNF-α vs Lev 1.0 mM): ns
MCP-1 (PMA), p of decrement (24 h, TNF-α vs Lev 1.0 mM): ns
MIP-1α (PMA), p of decrement (24 h, TNF-α vs Lev 1.0 mM): ns
MIP-1β (PMA), p of decrement (24 h, TNF-α vs Lev 1.0 mM): ns
RANTES (PMA), p of decrement (24 h, TNF-α vs Lev 1.0 mM): ns
VEGF (PMA), p of decrement (24 h, TNF-α vs Lev 1.0 mM): p < 0.05
Fractalkine (PMA), p of decrement (24 h, TNF-α vs Lev 2.3 mM): p < 0.01
IL-1ra (PMA), p of decrement (24 h, TNF-α vs Lev 2.3 mM): ns
IL-1α (PMA), p of decrement (24 h, TNF-α vs Lev 2.3 mM): ns
IL-1β (PMA), p of decrement (24 h, TNF-α vs Lev 2.3 mM): ns
IL-5 (PMA), p of decrement (24 h, TNF-α vs Lev 2.3 mM): ns
IL-7 (PMA), p of decrement (24 h, TNF-α vs Lev 2.3 mM): ns
IL-8 (PMA), p of decrement (24 h, TNF-α vs Lev 2.3 mM): ns
IP-10 (PMA), p of decrement (24 h, TNF-α vs Lev 2.3 mM): ns
MCP-1 (PMA), p of decrement (24 h, TNF-α vs Lev 2.3 mM): ns
MIP-1α (PMA), p of decrement (24 h, TNF-α vs Lev 2.3 mM): ns
MIP-1β (PMA), p of decrement (24 h, TNF-α vs Lev 2.3 mM): ns
RANTES (PMA), p of decrement (24 h, TNF-α vs Lev 2.3 mM): ns
VEGF (PMA), p of decrement (24 h, TNF-α vs Lev 2.3 mM): p < 0.01
Fractalkine (PMA), p of decrement [1]: ns
G-CSF (PMA), p of decrement [1]: Increase
GM-CSF (PMA), p of decrement [1]: ns
IL-1ra (PMA), p of decrement [1]: Increase
IL-1α (PMA), p of decrement [1]: Increase
IL-1β (PMA), p of decrement [1]: ns
IL-5 (PMA), p of decrement [1]: ns
IL-6 (PMA), p of decrement [1]: ns
IL-7 (PMA), p of decrement [1]: Increase
IL-8 (PMA), p of decrement [1]: Increase
IL-10 (PMA), p of decrement [1]: ns
IL-12p40 (PMA), p of decrement [1]: P < 0.01
IP-10 (PMA), p of decrement [1]: ns
MCP-1 (PMA), p of decrement [1]: Increase
MIP-1α (PMA), p of decrement [1]: Increase
MIP-1β (PMA), p of decrement [1]: Increase
RANTES (PMA), p of decrement [1]: Increase
TGF-α (PMA), p of decrement [1]: ns
VEGF (PMA), p of decrement [1]: P < 0.001
release of VEGF (FIG. 4 Panel A) (EoL-1 cells differentiated with PMA 24 h before the experiment): able to reduce the release
IL-8 release (FIG. 9) (PMA differentiated EoL-1 cells after TNF-α challenge): able to reduce
